Results reported in PubChem BioAssay (NCI).
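Results reflect a 48-hour exposure of cells in 96-well plates to compound at five concentrations. TGI: concentration producing complete growth inhibition.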

Assays:
Test in all cases: NCI anticancer screen, dose series, 48 h
CAKI-1 renal = system: CAKI-1 renal
UO-31 renal = system: UO-31 renal
OVCAR-4 ovarian = system: OVCAR-4 ovarian
A549 NSCLC = system: A549 NSCLC
MALME-3M melanoma = system: MALME-3M melanoma
HCC-2998 colon = system: HCC-2998 colon
NCI/ADR-RES ovarian = system: NCI/ADR-RES ovarian
MCF7 breast = system: MCF7 breast
NCI-H522 lung = system: NCI-H522 lung
UACC-257 melanoma = system: UACC-257 melanoma
SN12C renal = system: SN12C renal
RPMI-8226 leukemia = system: RPMI-8226 leukemia
MDA-MB-231 breast = system: MDA-MB-231 breast
SK-MEL-28 melanoma = system: SK-MEL-28 melanoma
ACHN renal = system: ACHN renal
SK-MEL-5 melanoma = system: SK-MEL-5 melanoma
HCT-116 colon = system: HCT-116 colon
UACC-62 melanoma = system: UACC-62 melanoma
SR leukemia = system: SR leukemia
U251 CNS = system: U251 CNS
MDA-MB-435 = system: MDA-MB-435
OVCAR-5 ovarian = system: OVCAR-5 ovarian
MDA-N = system: MDA-N
M14 melanoma = system: M14 melanoma
KM12 colon = system: KM12 colon
K-562 leukemia = system: K-562 leukemia
PC-3 prostate = system: PC-3 prostate
SNB-75 CNS = system: SNB-75 CNS
786-0 renal = system: 786-0 renal
HS 578T breast = system: HS 578T breast
BT-549 breast = system: BT-549 breast
T-47D breast = system: T-47D breast
OVCAR-8 ovarian = system: OVCAR-8 ovarian
SF-539 CNS = system: SF-539 CNS
A498 renal = system: A498 renal
NCI-H226 lung = system: NCI-H226 lung
HT29 colon = system: HT29 colon
HOP-62 NSCLC = system: HOP-62 NSCLC
SW-620 colon = system: SW-620 colon
HOP-92 NSCLC = system: HOP-92 NSCLC
NCI-H460 lung = system: NCI-H460 lung
SK-OV-3 ovarian = system: SK-OV-3 ovarian
HCT-15 colon = system: HCT-15 colon
SK-MEL-2 melanoma = system: SK-MEL-2 melanoma
TK-10 renal = system: TK-10 renal
SF-268 CNS = system: SF-268 CNS
CCRF-CEM leukemia = system: CCRF-CEM leukemia
MOLT-4 leukemia = system: MOLT-4 leukemia
EKVX NSCLC = system: EKVX NSCLC
HL-60(TB) leukemia = system: HL-60(TB) leukemia
LOX IMVI melanoma = system: LOX IMVI melanoma
NCI-H23 lung = system: NCI-H23 lung
COLO 205 colon = system: COLO 205 colon
SF-295 CNS = system: SF-295 CNS
SNB-19 CNS = system: SNB-19 CNS
DU-145 prostate = system: DU-145 prostate
OVCAR-3 ovarian = system: OVCAR-3 ovarian
RXF 393 renal = system: RXF 393 renal
IGROV1 ovarian = system: IGROV1 ovarian

`O=C(c1c(Cl)cc(Cl)cc1Cl)N(Cc1cccnc1)C(=S)N(Cc1cccnc1)C(=O)c1c(Cl)cc(Cl)cc1Cl` gave a TGI (CAKI-1 renal) of 19.8 µM, a TGI (UO-31 renal) of 19.4 µM and a TGI (OVCAR-4 ovarian) of 5.25 µM. For the same compound, the TGI (A549 NSCLC) was greater than 100 µM, the TGI (MALME-3M melanoma) was 42.4 µM and the TGI (HCC-2998 colon) was 7.4 µM. It also gave a TGI (NCI/ADR-RES ovarian) of 34.3 µM, a TGI (MCF7 breast) of 15.8 µM and a TGI (NCI-H522 lung) of 25.6 µM. For the same compound, the TGI (UACC-257 melanoma) was 22.8 µM, the TGI (SN12C renal) was 20.5 µM and the TGI (RPMI-8226 leukemia) was greater than 100 µM. It also gave a TGI (MDA-MB-231 breast) of 40.9 µM, a TGI (SK-MEL-28 melanoma) of 47.9 µM and a TGI (ACHN renal) of 41.1 µM. It also gave a TGI (SK-MEL-5 melanoma) of 26.4 µM, a TGI (HCT-116 colon) of 11.1 µM and a TGI (UACC-62 melanoma) of 34.2 µM. It also gave a TGI (SR leukemia) greater than 100 µM, a TGI (U251 CNS) of 27.3 µM and a TGI (MDA-MB-435) of 26.5 µM. For the same compound, the TGI (OVCAR-5 ovarian) was 40.8 µM, the TGI (MDA-N) was 5.2 µM and the TGI (M14 melanoma) was 26.5 µM. The TGI (KM12 colon) was 10.3 µM, the TGI (K-562 leukemia) was greater than 100 µM and the TGI (PC-3 prostate) was 24 µM. It also gave a TGI (SNB-75 CNS) of 14.2 µM, a TGI (786-0 renal) of 10.5 µM and a TGI (HS 578T breast) of 58.4 µM. It also gave a TGI (BT-549 breast) of 9.59 µM, a TGI (T-47D breast) of 41.4 µM and a TGI (OVCAR-8 ovarian) of 16.5 µM. It also gave a TGI (SF-539 CNS) of 28.4 µM, a TGI (A498 renal) of 51.6 µM and a TGI (NCI-H226 lung) of 45.1 µM. For the same compound, the TGI (HT29 colon) was 13.2 µM, the TGI (HOP-62 NSCLC) was 20.3 µM and the TGI (SW-620 colon) was greater than 100 µM. The TGI (HOP-92 NSCLC) was 10.6 µM, the TGI (NCI-H460 lung) was 32.9 µM and the TGI (SK-OV-3 ovarian) was 77 µM. It also gave a TGI (HCT-15 colon) of 11.2 µM, a TGI (SK-MEL-2 melanoma) of 36 µM and a TGI (TK-10 renal) of 11.1 µM. The TGI (SF-268 CNS) was 27.8 µM, the TGI (CCRF-CEM leukemia) was greater than 100 µM and the TGI (MOLT-4 leukemia) was greater than 100 µM. It also gave a TGI (EKVX NSCLC) of 35.3 µM, a TGI (HL-60(TB) leukemia) of 64.7 µM and a TGI (LOX IMVI melanoma) of 15.1 µM. The TGI (NCI-H23 lung) was 23.5 µM, the TGI (COLO 205 colon) was 21.9 µM and the TGI (SF-295 CNS) was 43.2 µM. For the same compound, the TGI (SNB-19 CNS) was 52.4 µM, the TGI (DU-145 prostate) was 17.2 µM and the TGI (OVCAR-3 ovarian) was 13.9 µM.

Compound `Cn1c(=O)n2c(=O)n(C)c(=O)n2c1=O` has a TGI (CAKI-1 renal) greater than 100 µM, a TGI (UO-31 renal) greater than 100 µM and a TGI (OVCAR-4 ovarian) greater than 100 µM. For the same compound, the TGI (A549 NSCLC) was greater than 100 µM, the TGI (MALME-3M melanoma) was greater than 100 µM and the TGI (HCC-2998 colon) was greater than 100 µM. It also gave a TGI (NCI/ADR-RES ovarian) greater than 100 µM, a TGI (MCF7 breast) greater than 100 µM and a TGI (NCI-H522 lung) greater than 100 µM. For the same compound, the TGI (UACC-257 melanoma) was greater than 100 µM, the TGI (SN12C renal) was greater than 100 µM and the TGI (RPMI-8226 leukemia) was greater than 100 µM. For the same compound, the TGI (MDA-MB-231 breast) was greater than 100 µM, the TGI (SK-MEL-28 melanoma) was greater than 100 µM and the TGI (SK-MEL-5 melanoma) was greater than 100 µM. It also gave a TGI (HCT-116 colon) greater than 100 µM, a TGI (UACC-62 melanoma) greater than 100 µM and a TGI (SR leukemia) greater than 100 µM. It also gave a TGI (U251 CNS) greater than 100 µM, a TGI (MDA-MB-435) greater than 100 µM and a TGI (OVCAR-5 ovarian) greater than 100 µM. It also gave a TGI (MDA-N) greater than 100 µM, a TGI (M14 melanoma) greater than 100 µM and a TGI (RXF 393 renal) greater than 100 µM. For the same compound, the TGI (KM12 colon) was greater than 100 µM, the TGI (K-562 leukemia) was greater than 100 µM and the TGI (PC-3 prostate) was greater than 100 µM. It also gave a TGI (SNB-75 CNS) greater than 100 µM, a TGI (786-0 renal) greater than 100 µM and a TGI (HS 578T breast) greater than 100 µM. It also gave a TGI (BT-549 breast) greater than 100 µM, a TGI (T-47D breast) greater than 100 µM and a TGI (OVCAR-8 ovarian) greater than 100 µM. The TGI (SF-539 CNS) was greater than 100 µM, the TGI (A498 renal) was greater than 100 µM and the TGI (NCI-H226 lung) was greater than 100 µM. For the same compound, the TGI (HT29 colon) was greater than 100 µM, the TGI (SW-620 colon) was greater than 100 µM and the TGI (NCI-H460 lung) was greater than 100 µM. The TGI (SK-OV-3 ovarian) was greater than 100 µM, the TGI (HCT-15 colon) was greater than 100 µM and the TGI (SK-MEL-2 melanoma) was greater than 100 µM. The TGI (TK-10 renal) was greater than 100 µM, the TGI (SF-268 CNS) was greater than 100 µM and the TGI (CCRF-CEM leukemia) was greater than 100 µM. It also gave a TGI (MOLT-4 leukemia) greater than 100 µM, a TGI (EKVX NSCLC) greater than 100 µM and a TGI (HL-60(TB) leukemia) greater than 100 µM. For the same compound, the TGI (LOX IMVI melanoma) was greater than 100 µM, the TGI (NCI-H23 lung) was greater than 100 µM and the TGI (COLO 205 colon) was greater than 100 µM. The TGI (SNB-19 CNS) was greater than 100 µM, the TGI (DU-145 prostate) was greater than 100 µM and the TGI (IGROV1 ovarian) was greater than 100 µM. It also gave a TGI (OVCAR-3 ovarian) greater than 100 µM.

In the case of `CCN1CC2(COC)C(O)CC(OC)C34C5CC6(O)C(OC)C=C(C5C6OC(=O)c5ccc(OC)c(OC)c5)C(C(OC)C23)C14` (stereo unspecified), the TGI (CAKI-1 renal) is reported as greater than 7.5 µM, the TGI (UO-31 renal) is reported as greater than 7.5 µM and the TGI (OVCAR-4 ovarian) is reported as greater than 7.5 µM. It also gave a TGI (A549 NSCLC) greater than 7.5 µM, a TGI (MALME-3M melanoma) greater than 7.5 µM and a TGI (HCC-2998 colon) greater than 7.5 µM. For the same compound, the TGI (NCI/ADR-RES ovarian) was greater than 7.5 µM, the TGI (MCF7 breast) was greater than 7.5 µM and the TGI (NCI-H522 lung) was greater than 7.5 µM. It also gave a TGI (UACC-257 melanoma) greater than 7.5 µM, a TGI (SN12C renal) greater than 7.5 µM and a TGI (MDA-MB-231 breast) greater than 7.5 µM. It also gave a TGI (SK-MEL-28 melanoma) greater than 7.5 µM, a TGI (ACHN renal) greater than 7.5 µM and a TGI (SK-MEL-5 melanoma) greater than 7.5 µM. It also gave a TGI (HCT-116 colon) greater than 7.5 µM, a TGI (UACC-62 melanoma) greater than 7.5 µM and a TGI (SR leukemia) greater than 7.5 µM. For the same compound, the TGI (U251 CNS) was greater than 7.5 µM, the TGI (MDA-MB-435) was greater than 7.5 µM and the TGI (OVCAR-5 ovarian) was greater than 7.5 µM. The TGI (MDA-N) was greater than 7.5 µM, the TGI (M14 melanoma) was greater than 7.5 µM and the TGI (KM12 colon) was greater than 7.5 µM. The TGI (K-562 leukemia) was greater than 7.5 µM, the TGI (PC-3 prostate) was greater than 7.5 µM and the TGI (SNB-75 CNS) was greater than 7.5 µM. It also gave a TGI (786-0 renal) greater than 7.5 µM, a TGI (HS 578T breast) greater than 7.5 µM and a TGI (BT-549 breast) greater than 7.5 µM. For the same compound, the TGI (T-47D breast) was greater than 7.5 µM, the TGI (OVCAR-8 ovarian) was greater than 7.5 µM and the TGI (SF-539 CNS) was greater than 7.5 µM. The TGI (A498 renal) was greater than 7.5 µM, the TGI (NCI-H226 lung) was greater than 7.5 µM and the TGI (HT29 colon) was greater than 7.5 µM. It also gave a TGI (SW-620 colon) greater than 7.5 µM, a TGI (HOP-92 NSCLC) greater than 7.5 µM and a TGI (NCI-H460 lung) greater than 7.5 µM. For the same compound, the TGI (SK-OV-3 ovarian) was greater than 7.5 µM, the TGI (HCT-15 colon) was greater than 7.5 µM and the TGI (SK-MEL-2 melanoma) was greater than 7.5 µM. The TGI (TK-10 renal) was greater than 7.5 µM, the TGI (SF-268 CNS) was greater than 7.5 µM and the TGI (CCRF-CEM leukemia) was greater than 7.5 µM. For the same compound, the TGI (EKVX NSCLC) was greater than 7.5 µM, the TGI (HL-60(TB) leukemia) was greater than 7.5 µM and the TGI (LOX IMVI melanoma) was greater than 7.5 µM. It also gave a TGI (NCI-H23 lung) greater than 7.5 µM, a TGI (COLO 205 colon) greater than 7.5 µM and a TGI (SF-295 CNS) greater than 7.5 µM. For the same compound, the TGI (SNB-19 CNS) was greater than 7.5 µM, the TGI (DU-145 prostate) was greater than 7.5 µM and the TGI (IGROV1 ovarian) was greater than 7.5 µM.
